From publication PMC7311426, “An amphipathic peptide with antibiotic activity against multidrug-resistant Gram-negative bacteria” (Nature Communications, 2020)
≈ marks a conversion by molar mass, not a printed value.

Tests used:
Test in all cases: microbe, parasite or virus in culture
[1] = system: E. coli ATCC 25922; format: cell-based, Escherichia coli; parameters: MIC, Survanta (5%) replicates: unit not given beside the values; settings: for MIC, Survanta (5%) replicates: BMD with 5% Survanta lung surfactant
Outline: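 Broth microdilution MIC in Mueller Hinton broth, 12-point 2-fold series from 128 or 64 down to 0.06 or 0.03 μg mL^−1, 5 × 10^5 CFU mL^−1 inoculum. Read visually after 18-20 h at 37 °C without shaking; n ≥ 6. Additional tests in CAMHB, and in MHB with 1% agarose.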

[2] = system: A. baumannii ATCC 19636; format: cell-based, Acinetobacter baumannii
[3] = system: K. pneumoniae; format: cell-based, Klebsiella pneumoniae
[4] = system: K. pneumoniae (#3010 & ST258); format: cell-based, Klebsiella pneumoniae
Protocol: The test media was cation-adjusted MHB (CAMHB, Becton Dickinson) supplemented with 2% Noble Agar (Becton Dickinson) and additionally for AA139 with 0.1% BSA. The agar dilution MIC values were determined as recommended by Clinical and Laboratory Standards Institute (CLSI)[47]. […] The inoculum for the spontaneous mutation plates targeted 10^9 to 10^10 colony-forming units (CFU) per plate. The viable count of each suspension was determined by plating serial ten-fold dilutions onto MHB/NA in duplicate. In addition, agar plates without drug were inoculated as positive controls. Plates were inspected for growth at both 24 and 48 h. Colony counts were determined manually. Using the counts at 48 h, the spontaneous mutation frequency was calculated using the following equation: (average number of colonies from duplicate selection plates)/(total number of cells inoculated onto each plate). If there were no colonies on the antibiotic selection plates, the spontaneous mutation frequency was reported as less than the frequency observed with one colony to indicate that the spontaneous mutation frequency was less than the limit of detection (one CFU).

[5] = system: E. coli clinical isolates
Outline: (§1)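 MIC90 from CLSI broth microdilution (M07-A9) in two clinical-isolate panels. US panel (331 isolates, 2010-2012): AA139 diluted in 0.01% acetic acid/0.1% BSA. Worldwide panel (445 isolates, 2011-2013, four regions): CAMHB, with 0.002% Tween 80 added for AA139 and polymyxin B.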

[6] = system: K. pneumoniae clinical isolates
Outline: as §1

[7] = system: P. aeruginosa clinical isolates
Outline: as §1

[8] = A. baumannii ATCC 19636 type strain, n=2 to 6, mode or median
[9] = K. pneumoniae ATCC 700603 ESBL, OXA-2/SHV-18, n=2 to 6, mode or median
[10] = Worldwide isolates 2011-2013, E. coli n = 112
[11] = Worldwide isolates 2011-2013, K. pneumoniae n = 114

colistin
MIC, Survanta (5%) replicates ([1]; E. coli ATCC 25922, FDA control strain, replicate 1): 0.06
MIC, Survanta (5%) replicates ([1]; E. coli ATCC 25922, FDA control strain, replicate 2): 0.06
MIC, Survanta (5%) replicates ([1]; E. coli ATCC 25922, FDA control strain, replicate 3): ≤0.03
MIC, Survanta (5%) replicates ([1]; E. coli ATCC 25922, FDA control strain, replicate 4): ≤0.03
MIC, Serum (50%) ([1]; E. coli ATCC 25922, FDA control strain, BMD with 50% human serum, mode, or median where no mode, n=4 to 6, where n=2 differs the higher value): ≤0.03
MIC, Serum (50%) replicates ([1]; E. coli ATCC 25922, FDA control strain, BMD with 50% human serum, replicate 1): ≤0.03
MIC, Serum (50%) replicates ([1]; E. coli ATCC 25922, FDA control strain, BMD with 50% human serum, replicate 2): ≤0.03
MIC, Serum (50%) replicates ([1]; E. coli ATCC 25922, FDA control strain, BMD with 50% human serum, replicate 3): 0.125
MIC, Serum (50%) replicates ([1]; E. coli ATCC 25922, FDA control strain, BMD with 50% human serum, replicate 4): 0.063
MIC, Serum (50%) replicates ([1]; E. coli ATCC 25922, FDA control strain, BMD with 50% human serum, replicate 5): ≤0.03
MIC, Serum (50%) replicates ([1]; E. coli ATCC 25922, FDA control strain, BMD with 50% human serum, replicate 6): ≤0.03
MIC, Serum (50%) ([1]; E. coli ATCC 25922, MHB + 50% (v/v) human serum, n=2 to 6, mode or median): ≤ 0.03 µg/mL
MIC, Survanta (5%) ([2]; A. baumannii ATCC 19636, type strain, BMD with 5% Survanta lung surfactant, mode, or median where no mode, n=4 to 6, where n=2 differs the higher value): 0.125
MIC, Survanta (5%) replicates ([2]; A. baumannii ATCC 19636, type strain, BMD with 5% Survanta lung surfactant, replicate 1): 0.5
MIC, Survanta (5%) replicates ([2]; A. baumannii ATCC 19636, type strain, BMD with 5% Survanta lung surfactant, replicate 2): 0.25
MIC, Survanta (5%) replicates ([2]; A. baumannii ATCC 19636, type strain, BMD with 5% Survanta lung surfactant, replicate 3): 0.06
MIC, Survanta (5%) replicates ([2]; A. baumannii ATCC 19636, type strain, BMD with 5% Survanta lung surfactant, replicate 4): 0.06
MIC, Serum (50%) ([2]; A. baumannii ATCC 19636, type strain, BMD with 50% human serum, mode, or median where no mode, n=4 to 6, where n=2 differs the higher value): ≤0.031
MIC, Serum (50%) replicates ([2]; A. baumannii ATCC 19636, type strain, BMD with 50% human serum, replicate 1): ≤0.031
MIC, Serum (50%) replicates ([2]; A. baumannii ATCC 19636, type strain, BMD with 50% human serum, replicate 2): ≤0.031
MIC, Serum (50%) replicates ([2]; A. baumannii ATCC 19636, type strain, BMD with 50% human serum, replicate 3): ≤0.031
MIC, Serum (50%) replicates ([2]; A. baumannii ATCC 19636, type strain, BMD with 50% human serum, replicate 4): ≤0.031
MIC, Serum (50%) [2, 8]: ≤ 0.031 µg/mL
MIC, Survanta (5%) [2, 8]: 0.125 µg/mL
MIC, Serum (50%) replicates ([3]; K. pneumoniae ATCC 13883, type strain, BMD with 50% human serum, replicate 1): ≤0.03
MIC, Serum (50%) replicates ([3]; K. pneumoniae ATCC 13883, type strain, BMD with 50% human serum, replicate 2): ≤0.03
MIC, Serum (50%) ([3]; K. pneumoniae ATCC 13883, type strain, BMD with 50% human serum, where n=2 differs the higher value is recorded): ≤0.03
MIC, Serum (50%) ([3]; K. pneumoniae ATCC 13883 type strain, n=2 to 6, mode or median): ≤ 0.03 µg/mL
MIC, Survanta (5%) ([3]; K. pneumoniae ATCC 700603, ESBL, OXA-2/SHV-18, BMD with 5% Survanta lung surfactant, mode, or median where no mode, n=4 to 6, where n=2 differs the higher value): 0.125
MIC, Survanta (5%) replicates ([3]; K. pneumoniae ATCC 700603, ESBL, OXA-2/SHV-18, BMD with 5% Survanta lung surfactant, replicate 1): 1
MIC, Survanta (5%) replicates ([3]; K. pneumoniae ATCC 700603, ESBL, OXA-2/SHV-18, BMD with 5% Survanta lung surfactant, replicate 2): 0.5
MIC, Survanta (5%) replicates ([3]; K. pneumoniae ATCC 700603, ESBL, OXA-2/SHV-18, BMD with 5% Survanta lung surfactant, replicate 3): 0.03
MIC, Survanta (5%) replicates ([3]; K. pneumoniae ATCC 700603, ESBL, OXA-2/SHV-18, BMD with 5% Survanta lung surfactant, replicate 4): 0.06
MIC, Serum (50%) ([3]; K. pneumoniae ATCC 700603, ESBL, OXA-2/SHV-18, BMD with 50% human serum, mode, or median where no mode, n=4 to 6, where n=2 differs the higher value): 0.125
MIC, Serum (50%) replicates ([3]; K. pneumoniae ATCC 700603, ESBL, OXA-2/SHV-18, BMD with 50% human serum, replicate 1): 0.25
MIC, Serum (50%) replicates ([3]; K. pneumoniae ATCC 700603, ESBL, OXA-2/SHV-18, BMD with 50% human serum, replicate 2): 0.25
MIC, Serum (50%) replicates ([3]; K. pneumoniae ATCC 700603, ESBL, OXA-2/SHV-18, BMD with 50% human serum, replicate 3): 0.031
MIC, Serum (50%) replicates ([3]; K. pneumoniae ATCC 700603, ESBL, OXA-2/SHV-18, BMD with 50% human serum, replicate 4): 0.063
MIC, Serum (50%) replicates ([3]; K. pneumoniae ATCC 700603, ESBL, OXA-2/SHV-18, BMD with 50% human serum, replicate 5): 0.031
MIC, Serum (50%) replicates ([3]; K. pneumoniae ATCC 700603, ESBL, OXA-2/SHV-18, BMD with 50% human serum, replicate 6): ≤0.031
MIC, Serum (50%) [3, 9]: 0.125 µg/mL
MIC, Survanta (5%) [3, 9]: 0.125 µg/mL
MIC, Survanta (5%) ([3]; K. pneumoniae BAA-2146, NDM-1, BMD with 5% Survanta lung surfactant, mode, or median where no mode, n=4 to 6, where n=2 differs the higher value): 0.06
MIC, Survanta (5%) replicates ([3]; K. pneumoniae BAA-2146, NDM-1, BMD with 5% Survanta lung surfactant, replicate 1): 0.125
MIC, Survanta (5%) replicates ([3]; K. pneumoniae BAA-2146, NDM-1, BMD with 5% Survanta lung surfactant, replicate 2): 0.125
MIC, Survanta (5%) replicates ([3]; K. pneumoniae BAA-2146, NDM-1, BMD with 5% Survanta lung surfactant, replicate 3): ≤0.03
MIC, Survanta (5%) replicates ([3]; K. pneumoniae BAA-2146, NDM-1, BMD with 5% Survanta lung surfactant, replicate 4): ≤0.03
MIC, Survanta (5%) ([3]; K. pneumoniae BAA-2146 NDM-1, n=2 to 6, mode or median): 0.06 µg/mL
Noble agar dilution MIC ([4]; K. pneumoniae SSI#3010): 1 µg/mL
Agar (Noble) Dilution MIC ([4]; K. pneumoniae ST258): 1 µg/mL
Noble agar dilution MIC ([4]; K. pneumoniae ST258): 1 µg/mL

C[C@H]1COc2c(N3CCN(C)CC3)c(F)cc3c(=O)c(C(=O)O)cn1c23 [LEV, levofloxacin, reference compound]
MIC90 ([5]; Escherichia coli): 16 µg/mL (≈ 44.3 µM)
MIC50 [5, 10]: 0.06 µg/mL (≈ 0.166 µM)
MIC90 [5, 10]: 16 µg/mL (≈ 44.3 µM)
MIC90 ([6]; Klebsiella pneumoniae): > 32 µg/mL
MIC50 [6, 11]: 0.25 µg/mL (≈ 0.692 µM)
MIC90 [6, 11]: > 32 µg/mL
MIC90 ([7]; Pseudomonas aeruginosa): > 32 µg/mL
MIC90 ([7]; Worldwide isolates 2011-2013, P. aeruginosa n = 111): > 32 µg/mL
MIC ([4]; Klebsiella pneumoniae, read-out: Agar (Noble) Dilution MIC, K. pneumoniae ST258): > 8 µg/mL
